Here are results for 23 compounds from US10821100B2, “Triazolone compounds as mPGES-1 inhibitors” (Glenmark Pharmaceuticals S.A., priority 2012, dated 2020).

This experiment concerns the target T1, Recombinant human mPGES-1 (Homo sapiens, UniProt O14684).
T1 construct: made in house; host or cells: CHO cells (crude microsomal fractions)
T1 sequence (O14684 1-152): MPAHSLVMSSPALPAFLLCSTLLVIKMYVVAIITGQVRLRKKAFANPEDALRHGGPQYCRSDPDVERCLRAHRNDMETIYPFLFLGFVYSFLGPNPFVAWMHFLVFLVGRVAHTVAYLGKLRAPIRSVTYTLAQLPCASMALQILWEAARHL
Put plainly: In-vitro screening of mPGES-1 inhibitors (inhibition of PGE2 formation from PGH2, HTRF detection). As to conditions: mPGES-1 enzyme; for inhibition at 1 µM: 1 μM test compound, read-out: Percentage inhibition at 1 μM; for inhibition at 1 µM / inhibition at 10 µM: crude microsomal fractions; for inhibition at 10 µM: 10 μM test compound, read-out: Percentage inhibition at 10 μM; for IC50: class symbols. In kind it is biochemical. In short, it runs like this: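 PGH2-to-PGE2 isomerization run for 1 min with 15 μM PGH2 after 10 min compound preincubation with microsomal enzyme (40–60 μg/mL) and 2.5 mM GSH, pH buffer 0.1 M potassium phosphate with EDTA. Stannous chloride quench, HTRF PGE2 readout, IC50 fitted against uninhibited reaction.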

On to `COc1cc(-c2nn(-c3c(Cl)cccc3Cl)c(=O)[nH]2)ccc1C(=O)Nc1cccc(C(F)(F)F)c1` [Example-76, 4-(1-(2,6-Dichlorophenyl)-5-oxo-4,5-dihydro-1H-1,2,4-triazol-3-yl)-2-methoxy-N-(3-(trifluoromethyl)phenyl)benzamide], for which the inhibition at 1 µM is 95.6%, the inhibition at 10 µM came to 95.4% and the IC50 was under 50 nM.

`COc1cc(-c2nn(-c3c(Cl)cccc3Cl)c(=O)[nH]2)ccc1C(=O)Nc1ccc(F)c(C(F)(F)F)c1` [Example-77, 4-(1-(2,6-Dichlorophenyl)-5-oxo-4,5-dihydro-1H-1,2,4-triazol-3-yl)-N-(4-fluoro-3-(trifluoromethyl)phenyl)-2-methoxybenzamide]: the inhibition at 1 µM was 93.2%, the inhibition at 10 µM worked out at 98.1% and the IC50 fell in the range of 50 to 100 nM.

On to `O=C(NCc1ccc(Cl)c(-n2nc(-c3ccc(C#Cc4cc(Cl)ccc4Cl)cc3F)[nH]c2=O)c1)C1CC1` [Example-78], for which the inhibition at 1 µM came to 99.9%, the inhibition at 10 µM worked out at 99.9% and the IC50 was under 50 nM.

Turning to `O=C(NCc1ccc(Cl)c(-n2nc(-c3ccc(C#Cc4ccc(Cl)cc4F)cc3F)[nH]c2=O)c1)C1CC1` [Example-79, N-(4-Chloro-3-(3-(4-((4-chloro-2-fluorophenyl)ethynyl)-2-fluorophenyl)-5-oxo-4,5-dihydro-1H-1,2,4-triazol-1-yl)benzyl)cyclopropanecarboxamide], the inhibition at 1 µM is 99.1%, the inhibition at 10 µM turned out to be 97.1% and the 50% inhibitory concentration (IC50) was under 50 nM.

Turning to `O=C(NCc1ccc(Cl)c(-n2nc(-c3ccc(C#Cc4cccc(C(F)(F)F)c4)cc3F)[nH]c2=O)c1)C1CC1` [Example-80, N-(4-Chloro-3-(3-(2-fluoro-4-((3-(trifluoromethyl)phenyl)ethynyl)phenyl)-5-oxo-4,5-dihydro-1H-1,2,4-triazol-1-yl)benzyl)cyclopropanecarboxamide], the inhibition at 1 µM was found to be 97%, the inhibition at 10 µM amounted to 97.1% and the half-inhibitory concentration (IC50) is under 50 nM.

For the compound `O=C(NCc1ccc(Cl)c(-n2nc(-c3ccc(C#Cc4cccc(Cl)c4F)cc3F)[nH]c2=O)c1)C1CC1` [Example-81, N-(4-Chloro-3-(3-(4-((3-chloro-2-fluorophenyl)ethynyl)-2-fluorophenyl)-5-oxo-4,5-dihydro-1H-1,2,4-triazol-1-yl)benzyl)cyclopropanecarboxamide], the inhibition at 1 µM is 99.8%, the inhibition at 10 µM is 98% and the 50% inhibitory concentration (IC50) is under 50 nM.

For the compound `O=C(NCc1ccc(Cl)c(-n2nc(-c3ccc(C#Cc4ccc(C(F)(F)F)cc4Cl)cc3F)[nH]c2=O)c1)C1CC1` [Example-82, N-(4-Chloro-3-(3-(4-((2-chloro-4-(trifluoromethyl)phenyl)ethynyl)-2-fluorophenyl)-5-oxo-4,5-dihydro-1H-1,2,4-triazol-1-yl)benzyl)cyclopropanecarboxamide], the inhibition at 1 µM turned out to be 98.3%, the inhibition at 10 µM was 99% and the IC50 was under 50 nM.

In the case of `CC(C)(C)C(=O)NCc1ccc(Cl)c(-c2nn(-c3ccc(Cl)c(Cl)c3)c(=O)[nH]2)c1F` [Example-83, N-(4-Chloro-3-(1-(3,4-dichlorophenyl)-5-oxo-4,5-dihydro-1H-1,2,4-triazol-3-yl)-2-fluorobenzyl)pivalamide], the inhibition at 1 µM was 97.5%, the inhibition at 10 µM is 99.9% and the IC50 is under 50 nM.

Consider `CC(C)(C)C(=O)NCc1ccc(Cl)c(-c2nn(-c3ccc(C(F)(F)F)cc3)c(=O)[nH]2)c1F` [Example-84, N-(4-Chloro-2-fluoro-3-(5-oxo-1-(4-(trifluoromethyl)phenyl)-4,5-dihydro-1H-1,2,4-triazol-3-yl)benzyl)pivalamide], for which the inhibition at 1 µM is 98.8%, the inhibition at 10 µM came out at 99.5% and the 50% inhibitory concentration (IC50) was under 50 nM.

Regarding `CC(C)(C)C(=O)NCc1ccc(Cl)c(-c2nn(-c3ccc(F)cc3F)c(=O)[nH]2)c1F` [Example-85, N-(4-Chloro-j-(1-(2,4-difluorophenyl)-5-oxo-4,5-dihydro-1H-1,2,4-triazol-3-yl)-2-fluorobenzyl)pivalamide], the inhibition at 1 µM is 22.6% and the inhibition at 10 µM was found to be 69.3%.

For the compound `COc1ccc(-n2nc(-c3c(Cl)ccc(CNC(=O)C(C)(C)C)c3F)[nH]c2=O)cc1` [Example-86, N-(4-Chloro-2-fluoro-3-(1-(4-methoxyphenyl)-5-oxo-4,5-dihydro-1H-1,2,4-triazol-3-yl)benzyl)pivalamide], the inhibition at 1 µM worked out at 79.9%, the inhibition at 10 µM came out at 96.7% and the 50% inhibitory concentration (IC50) was over 100 nM.

On to `CC(C)(C)C(=O)NCc1ccc(Cl)c(-n2nc(-c3ccc(C(F)(F)F)cc3F)[nH]c2=O)c1F` [Example-87, N-(4-Chloro-2-fluoro-3-(3-(2-fluoro-4-(trifluoromethyl)phenyl)-5-oxo-4,5-dihydro-1H-1,2,4-triazol-1-yl)benzyl)pivalamide], for which the inhibition at 1 µM turned out to be 93.4%, the inhibition at 10 µM turned out to be 99.2% and the half-inhibitory concentration (IC50) lay within 50 to 100 nM.

As to `CC(C)(C)C(=O)NCc1ccc(Cl)c(-n2nc(-c3c(F)cccc3Cl)[nH]c2=O)c1F` [Example-88, N-(4-Chloro-3-(3-(2-chloro-6-fluorophenyl)-5-oxo-4,5-dihydro-1H-1,2,4-triazol-1-yl)-2-fluorobenzyl)pivalamide], the inhibition at 1 µM amounted to 3.34% and the inhibition at 10 µM came out at 39.2%.

In the case of `CC(C)(C)C(=O)NCc1ccc(Cl)c(-c2nn(-c3ccc(C#N)cc3)c(=O)[nH]2)c1F` [Example-89, N-(4-chloro-3-(1-(4-cyanophenyl)-5-oxo-4,5-dihydro-1H-1,2,4-triazol-3-yl)-2-fluorobenzyl)pivalamide], the inhibition at 1 µM turned out to be 95.3%, the inhibition at 10 µM was 99.1% and the concentration for half-maximal inhibition (IC50) was under 50 nM.

Take `CC(C)(C)C(=O)NCc1ccc(Cl)c(-n2nc(-c3ccc(Cl)cc3F)[nH]c2=O)c1F` [Example-90, N-(4-Chloro-3-(3-(4-chloro-2-fluorophenyl)-5-oxo-4,5-dihydro-1H-1,2,4-triazol-1-yl)-2-fluorobenzyl)pivalamide]: the inhibition at 1 µM turned out to be 81.7%, the inhibition at 10 µM worked out at 97.2% and the IC50 is over 100 nM.

For the compound `O=C(NCc1ccc(Cl)c(-n2nc(-c3ccc(Cl)cc3F)[nH]c2=O)c1)C1CC1` [Example-91, N-(4-Chloro-3-(3-(4-chloro-2-fluorophenyl)-5-oxo-4,5-dihydro-1H-1,2,4-triazol-1-yl)benzyl)cyclopropanecarboxamide], the inhibition at 1 µM amounted to 66.2% and the inhibition at 10 µM came out at 94.3%.

Consider `O=C(NCc1ccc(Cl)c(-n2nc(-c3ccc(C(F)(F)F)cc3F)[nH]c2=O)c1)C1CC1` [Example-92, N-(4-Chloro-3-(3-(2-fluoro-4-(trifluoromethyl)phenyl)-5-oxo-4,5-dihydro-1H-1,2,4-triazol-1-yl)benzyl)cyclopropanecarboxamide], for which the inhibition at 1 µM is 76%, the inhibition at 10 µM worked out at 99.4% and the IC50 was over 100 nM.

As for `CC(C)(C)C(=O)NCc1ccc(Cl)c(-n2nc(-c3ccc(C(F)(F)F)cc3)[nH]c2=O)c1F` [Example-93, N-(4-Chloro-2-fluoro-3-(5-oxo-3-(4-(trifluoromethyl)phenyl)-4,5-dihydro-1H-1,2,4-triazol-1-yl)benzyl)pivalamide], the inhibition at 1 µM is 96.8%, the inhibition at 10 µM is 99.6% and the IC50 is under 50 nM.

For `CC(C)(C)C(=O)NCc1ccc(Cl)c(-c2nn(-c3ccc(C(F)(F)F)cn3)c(=O)[nH]2)c1F` [Example-94, N-(4-Chloro-2-fluoro-3-(5-oxo-1-(5-(trifluoromethyl)pyridin-2-yl)-4,5-dihydro-1H-1,2,4-triazol-3-yl)benzyl)pivalamide], the inhibition at 1 µM is 87%, the inhibition at 10 µM is 100% and the IC50 was over 100 nM.

With `CC(C)(C)C(=O)NCc1ccc(Cl)c(-c2nn(-c3ccc(C(F)(F)F)nc3)c(=O)[nH]2)c1F` [Example-95, N-(4-Chloro-2-fluoro-3-(5-oxo-1-(6-(trifluoromethyl)pyridin-3-yl)-4,5-dihydro-1H-1,2,4-triazol-3-yl)benzyl)pivalamide], the inhibition at 1 µM came out at 98.7%, the inhibition at 10 µM stood at 99% and the IC50 is under 50 nM.

With `O=c1[nH]c(-c2cc(S(=O)(=O)NC3CC3)ccc2Cl)nn1-c1ccc(C(F)(F)F)cc1` [Example-96, 4-Chloro-N-cyclopropyl-3-(5-oxo-1-(4-(trifluoromethyl)phenyl)-4,5-dihydro-1H-1,2,4-triazol-3-yl)benzenesulfonamide], the inhibition at 1 µM is 52.2% and the inhibition at 10 µM is 68.7%.

`O=c1[nH]c(-c2cc(S(=O)(=O)NC3CC3)ccc2Cl)nn1-c1ccc(Cl)cc1` [Example-97, 4-Chloro-3-(1-(4-chlorophenyl)-5-oxo-4,5-dihydro-1H-1,2,4-triazol-3-yl)-N-cyclopropylbenzenesulfonamide]: the inhibition at 1 µM came to 20.2% and the inhibition at 10 µM is 6.88%.

On to `CC(C)(C)C(=O)NCc1ccc(Cl)c(-c2nn(-c3ccc(Cl)cc3)c(=O)[nH]2)c1F` [Example-98, N-(4-Chloro-3-(1-(4-chlorophenyl)-5-oxo-4,5-dihydro-1H-1,2,4-triazol-3-yl)-2-fluorobenzyl)pivalamide], for which the inhibition at 1 µM was 97.5%, the inhibition at 10 µM turned out to be 99.5% and the IC50 is under 50 nM.
